Experimental data: US20240239788A1, “SMALL MOLECULE INHIBITORS OF KRAS G12D MUTANT” (Merck Sharp & Dohme LLC, priority 2021, published 2024)
Where two headings read alike, the source gives them in different places.

Experiments:
[1] = target: KRAS G12D / Ras binding domain of C-RAF (Homo sapiens (Human), UniProt P01116, G12D); assay: RAS:RAF-RBD binding assay (cRaf), TR-FRET; settings: biotinylated KRAS G12D, GST-C-RAF RBD
Method: Compounds are added to KRAS and then after a 30-minute incubation time the RAF-RBD and detection antibodies are added. Small molecule inhibitors that block the interaction of c-RAF-RBD prevent generation of a TR-FRET signal.
Biotinylated KRAS G12D protein is diluted to 20 nM in assay buffer (20 mM HEPES pH 7.5, 150 mM sodium chloride, 10 mM magnesium chloride, and 0.01% Tween20).
Each test compound (10 mM stock in DMSO) is diluted in DMSO to make a 10-point, 3-fold dilution series in a 384-well low dead volume microplate (Labcyte, catalog #LP-0200).
Each well of the assay plate receives 5 μL of Biotinylated KRAS G12D assay solution and is incubated at room temperature for 30 minutes. Each well then receives 5 μL of 100 nM GST-C-RAF RBD protein and a 1:100 dilution of both anti-GST-d2 (Cisbio catalog #61GSTDLA) and Streptavidin-Tb cryptate (Cisbio catalog #610SATLA) in assay buffer and the plate is mixed and briefly centrifuged followed by a 60 minute incubation at room temperature.
The apparent effect as a function of compound concentration is fit to a four-parameter logistic equation.

[2] = test system: AsPC-1 cells containing homozygous KRAS-G12D activating mutation; assay: Cellular phospho-ERK assay (Examples 1a-106); assay type: cell-based; settings: AsPC-1 cells, 2 hours, ratio of p-Erk vs total Erk, read-out: IC50 (nM) pERK (Cell)
Excerpt: 5% CO? overnight. […] Assay plates were read on a EnVision Multimode Plate Reader (PerkinElmer) and the ratio of p-Erk vs total Erk in each well was used as the final readout.

[3] = target: KRAS protein containing G12D mutation (Homo sapiens (Human), UniProt P01116, G12D); assay: SOS-catalyzed nucleotide exchange assay (GNE), TR-FRET; assay type: biochemical; settings: biotinylated KRAS G12D, SOS and GTP, 60-minute incubation
Method: Compounds are added to this complex and then after a 60-minute incubation time the mixture is treated with SOS and unlabeled GTP. Small molecule inhibitors stabilize the Bodipy-GDP complex whereas the untreated protein rapidly exchanges Bodipy-GDP for unlabeled GTP resulting in reduced TR-FRET signal.
This solution is referred to as biotinylated KRAS G12D stock solution.

KRAS G12D / Ras binding domain of C-RAF, sequence (P01116 other isoform, or with tags, fused parts or gaps G12D (already in the parent)): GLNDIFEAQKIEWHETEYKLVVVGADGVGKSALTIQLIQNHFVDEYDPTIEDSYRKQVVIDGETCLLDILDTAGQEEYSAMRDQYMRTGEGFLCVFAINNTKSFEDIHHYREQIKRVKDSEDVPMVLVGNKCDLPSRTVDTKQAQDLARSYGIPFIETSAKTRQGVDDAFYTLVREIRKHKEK
KRAS protein containing G12D mutation, sequence (P01116 other isoform, or with tags, fused parts or gaps G12D (already in the parent)): as above

Compound	IC50 ([1]; IC50 (nM) (cRaf))	IC50 ([2]; Homo sapiens, ASPC1, 2 h)	IC50 [3]	IC50 [2]	IC50 ([1]; read-out: IC50 (nM) (cRaf))
CN(C)CC1(COc2nc(N3CC4CCC(C3)N4)c3cc(Cl)c(-c4cc(O)ccc4[Si](C)(C)C)c(F)c3n2)CC1 [Example 45, 3-(4-(3,8-diazabicyclo[3.2.1]octan-3-yl)-6-chloro-2-((1-((dimethylamino)methyl)cyclopropyl)methoxy)-8-fluoroquinazolin-7-yl)-4-(trimethylsilyl)phenol]	31600 nM	5470 nM	376 nM	–	–
CN(C)CC1(COc2nc(N3CC4CCC(F)(C3)N4)c3cc(Cl)c(-c4cc(O)cc5ccccc45)c(F)c3n2)CC1 (stereo not drawn) [Example 34, 4-(6-chloro-2-((1-((dimethylamino)meth-yl)cyclopropyl)meth-oxy)-8-fluoro-4-(1-fluoro-3,8-diaza-bicyclo[3.2.1]octan-3-yl)quinaozlin-7-yl)naphthalen-2-ol]	38300 nM	11500 nM	2560 nM	–	–
Nc1nc2c(-c3c(Cl)cc4c(N5CC6CCC(C5)N6)nc(OCC5(CN6CCOCC6)CC5)nc4c3F)ccc(F)c2s1 [Example 62, 4-(4-(3,8-diazabicyclo[3.2.1]octan-3-yl)-6-chloro-8-fluoro-2-((1-(morpholinomethyl)cyclopropyl)methoxy)quinazolin-7-yl)-7-fluorobenzo[d]thiazol-2-amine]	334 nM	1860 nM	3.83 nM	–	–
CN(C)CC1(COc2nc(N3C[C@H]4C[C@@H](O)[C@@H](C3)N4)c3cc(Cl)c(-c4cc(O)cc5ccccc45)c(F)c3n2)CC1 (single isomer, unassigned) [Example 18a]	293 nM	–	8.97 nM	20600 nM	–
CN(C)C[C@@]1(COc2nc(N3C[C@H]4CC[C@@](C)(C3)N4)c3cc(Cl)c(-c4c(F)cc(F)c5ccc(N)nc45)c(F)c3n2)CC1(F)F (single isomer, unassigned) [92b]	9210 nM	–	236 nM	5320 nM	–
CN(C)CC1(COc2nc(N3CC4(C)CCC(C)(C3)N4)c3cc(F)c(-c4cc(O)cc5ccccc45)c(F)c3n2)CC1 [Example 32, 4-(4-(1,5-dimethyl-3,8-diazabicy-clo[3.2.1]octan-3-yl)-2-((1-((dimethyl-amino)methyl)cyclo-propyl)methoxy)-6,8-difluoroquinazolin-7-yl)naphthalen-2-ol]	1430 nM	2260 nM	64.2 nM	–	–
Cc1cc2[nH]ncc2c(-c2c(F)cc3c(N4C[C@H]5CC[C@@](C)(C4)N5)nc(OC[C@@H]4C[C@@H](F)CN4C)nc3c2F)c1C(F)(F)F [Example 67, 6,8-difluoro-2-(((2S,4R)-4-fluoro-1-methylpyrrolidin-2-yl)methoxy)-7-(6-methyl-5-(trifluoromethyl)-H-indazol-4-yl)-4-((1S,5R)-1-methyl-3,8-diazabicyclo[3.2.1]octan-3-yl)quinazoline]	4040 nM	2860 nM	173 nM	–	–
CN(C)CC1(COc2nc(N3C[C@@H]4C[C@H](O)C(C)(C3)N4)c3cc(Cl)c(-c4cc(O)cc5ccccc45)c(F)c3n2)CC1 (stereo in doubt) [Example 41, 3-(6-chloro-2-((1-((dimethylamino)methyl)cyclopropyl)methoxy)-8-fluoro-7-(3-hydroxynaphthalen-1-yl)quinazolin-4-yl)-5-methyl-3,8-diazabicyclo[3.2.1]octan-6-ol]	1270 nM	2840 nM	20.3 nM	–	–
CN(C)CC1(COc2nc(N3C[C@H]4NC(C)(C[C@H]4O)C3)c3cc(Cl)c(-c4cc(O)cc5ccccc45)c(F)c3n2)CC1 (stereo in doubt) [Example 42, 3-(6-chloro-2-((1-((dimethylamino)methyl)cyclopropyl)methoxy)-8-fluoro-7-(3-hydroxynaphthalen-1-yl)quinazolin-4-yl)-1-methyl-3,8-diazabicyclo [3.2.1]octan-6-ol]	20400 nM	8460 nM	17.5 nM	–	–
CN(C)C[C@@]1(COc2nc(N3C[C@H]4CC[C@@](C)(C3)N4)c3cc(F)c(-c4cc(O)cc5ccccc45)c(F)c3n2)CC1(F)F [Ex 69, 4-(2-(((R)-1-((dimethylamino)methyl)-2,2-difluorocyclopropyl)methoxy)-6,8-difluoro-4-((1S,5R)-1-methyl-3,8-diazabicyclo[3.2.1]octan-3-yl)quinazolin-7-yl)naphthalen-2-ol]	194 nM	275 nM	1.76 nM	–	–
Oc1cc(-c2c(F)cc3c(N4CC5CC(O)C(C4)N5)nc(OCC4(CN5CCOCC5)CC4)nc3c2F)c2ccccc2c1 (single isomer, unassigned) [Example 17]	3260 nM	–	52.1 nM	7430 nM	–
CCC12CCC(CN(c3nc(OCC4(CN(C)C)CC4)nc4c(F)c(-c5cc(O)cc6ccccc56)c(F)cc34)C1)N2 (stereo not drawn) [Example 33, 4-(2-((1-((dimethylamino)meth-yl)cyclopro-pyl)methoxy)-4-(1-ethyl-3,8-diazabicy-clo[3.2.1]octan-3-yl)-6,8-difluoroquinazolin-7-yl)naphthalen-2-ol]	5070 nM	3450 nM	88.5 nM	–	–
CN(C)C[C@]1(COc2nc(N3CC4CCC(C3)N4)c3cc(Cl)c(-c4cc(O)cc5ccccc45)c(F)c3n2)CC1(F)F (atropisomer, axis not shown) [Example 11b, 4-(4-(3.8-diazabicyclo[3.2.1]octan-3-yl)-6-chloro-2-(((S)-1-((dimethylamino)methyl)-2,2-difluorocyclopropyl)methoxy)-8-fluoroquinazolin-7-yl)naphthalen-2-ol]	–	–	131 nM	6260 nM	7240 nM
COC1CC2CN(c3nc(OCC4(CN(C)C)CC4)nc4c(F)c(-c5cc(O)cc6ccccc56)c(F)cc34)CC1N2 (stereo not drawn) [Example 25, 4-(2-((1-((dimethyl-amino)methyl)cyclo-propyl)methoxy)-6,8-difluoro-4-(6-methoxy-3,8-diazabicyclo[3.2.1]oc-tan-3-yl)quinazolin-7-yl)naphthalen-2-ol]	20300 nM	7070 nM	454 nM	–	–
